Results as given in patent US20240423984A1, “COMBINATION THERAPIES OF KRAS G12D INHIBITORS WITH SHP-2 INHIBITORS” (MIRATI THERAPEUTICS, INC., priority 2021, published 2024).

Key:
Assay type in all cases: in vivo, nude/nude mice
[1] = test system: AsPC-1 cells; assay: AsPC-1 pancreatic cancer xenograft tumor volume; settings: for Average Tumor Volumes: AsPC-1 tumor bearing mice
Procedure: (§1) Immunocompromised nude/nude mice are inoculated in the right hind flank with cells harboring a KRas G12D mutation. When tumor volumes reach between 200-400 mm^3 in size, the mice are divided into four to five groups of 5 mice each. The first group is administered vehicle only. […] The fourth group is administered the single agent dose of the KRas G12D inhibitor using the twice daily for 2 sequential days followed by 5 days off schedule in combination with the single agent dose of the SHP-2 inhibitor. The treatment period varies from cell line to cell line but typically is between 15-28-days. Tumor volumes are measured using a caliper every two three days and tumor volumes are calculated by the formula: […].
(§2) 20 to 25 nude/nude mice per study were inoculated in the right hind limb with 5×10^6 LS180 cells, GP2D cells, Panc 02.03 cells, or AsPC-1 cells. When tumor volumes reached ˜200 mm^3-400 mm3 (study day 0) 5 mice in each of the groups were administered i.p. vehicle only (10% captisol in 50 mM citrate buffer pH 5.0), 30 mg/kg of Kras G12) inhibitor MRTX1133 (10% captisol in 50 mM citrate buffer, pH 5.0) either on the twice daily schedule or the twice daily for 2 consecutive days followed by 5 days off schedule, 10 mg/kg twice daily of the TNO-155 (0.5% methylcellulose and 0.1% Tween 80 in water) SHP2 inhibitor or 30 mg/kg once daily of the RMC-4550 (10% captisol in 50 mM citrate buffer pH 5.0) SHP2 inhibitor, or 30 mg/kg of Kras G12D inhibitor on either schedule and either TNO-155 or RMC-4550. Tumor volumes, measured at pre-specified days, for the five mice per group were averaged and are reported for LS180, GP2D, Panc 02.03, and AsPC-1 in Tables 2, 3, 4 and 5, respectively.
Experimental Procedures. 20 nude/nude mice were inoculated with AsPC-1 cells in the right hind flank. When the tumors reached ˜200 mm^3 four treatment groups were established with five mice per group.

[2] = test system: LS180 cells; assay: LS180 colon cancer xenograft tumor volume; settings: for Average Tumor Volumes: LS180 tumor bearing mice, TNO155 10 mg/kg BID Daily
Procedure: as §1, §2
25 nude/nude mice were inoculated with LS180 cells in the right hind flank. When the tumors reached ˜250 mm^3 five treatment groups were established with five mice per group.

[3] = test system: Panc 02.03 cells; assay: Panc 02.03 pancreatic cancer xenograft tumor volume; settings: for Average Tumor Volumes: Panc 02.03 tumor bearing mice
Procedure: as §1, §2
Experimental Procedures. 25 nude/nude mice were inoculated with Panc 02.03 cells in the right hind flank. When the tumors reached ˜300 mm^3 four treatment groups were established with five mice per group.

[4] = test system: GP2D cells; assay: GP2D colon cancer xenograft tumor volume; settings: for Average Tumor Volumes: GP2D TGI-38 tumor bearing mice
Procedure: as §1, §2
20 nude/nude mice were inoculated with GP2D cells in the right hind flank. When the tumors reached ˜300 mm^3 four treatment groups were established with five mice per group.

[5] = TNO155 10 mg/kg BID Daily, Study Day 1
[6] = MRTX1133 30 mg/kg BID Daily, Study Day 1

## C[C@@H]1OCC2(CCN(c3cnc(Sc4ccnc(N)c4Cl)c(N)n3)CC2)[C@@H]1N [TNO155]
[1]; AsPC-1, TNO155 10 mg/kg BID daily, single agent, Day 23
  tumor growth inhibition: 0%
[1]; [5]
  Average Tumor Volumes: 192.408 mm^3
[1]; TNO155 10 mg/kg BID Daily, Study Day 6
  Average Tumor Volumes: 262.654 mm^3
[1]; TNO155 10 mg/kg BID Daily, Study Day 9
  Average Tumor Volumes: 263.966 mm^3
[1]; TNO155 10 mg/kg BID Daily, Study Day 13
  Average Tumor Volumes: 301.71 mm^3
[1]; TNO155 10 mg/kg BID Daily, Study Day 16
  Average Tumor Volumes: 317.812 mm^3
[1]; TNO155 10 mg/kg BID Daily, Study Day 20
  Average Tumor Volumes: 360.412 mm^3
[1]; TNO155 10 mg/kg BID Daily, Study Day 23
  Average Tumor Volumes: 456.218 mm^3
[2]; LS180, TNO155 10 mg/kg BID daily, single agent, Day 15
  tumor growth inhibition: 48%
[2]; Study Day 1
  Average Tumor Volumes: 272.732 mm^3
[2]; Study Day 4
  Average Tumor Volumes: 568.234 mm^3
[2]; Study Day 8
  Average Tumor Volumes: 888.474 mm^3
[2]; Study Day 11
  Average Tumor Volumes: 1009.462 mm^3
[2]; Study Day 15
  Average Tumor Volumes: 1155.8525 mm^3
[3]; Panc 02.03, TNO155 10 mg/kg BID daily, single agent, Day 22
  tumor growth inhibition: 58%
[3]; [5]
  Average Tumor Volumes: 330.644 mm^3
[3]; TNO155 10 mg/kg BID Daily, Study Day 4
  Average Tumor Volumes: 365.57 mm^3
[3]; TNO155 10 mg/kg BID Daily, Study Day 8
  Average Tumor Volumes: 469.4 mm^3
[3]; TNO155 10 mg/kg BID Daily, Study Day 11
  Average Tumor Volumes: 522.856 mm^3
[3]; TNO155 10 mg/kg BID Daily, Study Day 15
  Average Tumor Volumes: 571.16 mm^3
[3]; TNO155 10 mg/kg BID Daily, Study Day 18
  Average Tumor Volumes: 622.47 mm^3
[3]; TNO155 10 mg/kg BID Daily, Study Day 22
  Average Tumor Volumes: 657.502 mm^3

## Cc1nc(N2CCC3(CC2)CO[C@@H](C)[C@H]3N)c(CO)nc1-c1cccc(Cl)c1Cl [RMC-4550, (3-((3S,4S)-4-amino-3-methyl-2-oxa-8-azaspiro[4.5]decan-8-yl)-6-(2,3-dichlorophenyl)-5-methylpyrazin-2-yl)methanol]
[4]; RMC-4550 30 mg/kg Once Daily, Study Day 1
  Average Tumor Volumes: 300.014 mm^3
[4]; RMC-4550 30 mg/kg Once Daily, Study Day 7
  Average Tumor Volumes: 353.148 mm^3
[4]; RMC-4550 30 mg/kg Once Daily, Study Day 10
  Average Tumor Volumes: 398.576 mm^3
[4]; RMC-4550 30 mg/kg Once Daily, Study Day 14
  Average Tumor Volumes: 497.714 mm^3
[4]; RMC-4550 30 mg/kg Once Daily, Study Day 17
  Average Tumor Volumes: 530.072 mm^3
[4]; RMC-4550 30 mg/kg Once Daily, Study Day 21
  Average Tumor Volumes: 567.882 mm^3
[4]; RMC-4550 30 mg/kg Once Daily, Study Day 26
  Average Tumor Volumes: 685.836 mm^3
[4]; RMC-4550 30 mg/kg Once Daily, Study Day 28
  Average Tumor Volumes: 807.148 mm^3
[4]; RMC-4550 30 mg/kg Once Daily, Study Day 31
  Average Tumor Volumes: 970.626 mm^3
[4]; RMC-4550 30 mg/kg Once Daily, Study Day 35
  Average Tumor Volumes: 1027.032 mm^3
[4]; GP2D, RMC-4550 30 mg/kg QD, single agent, Day 35
  tumor growth inhibition: 56%

## C#Cc1c(F)ccc2cc(O)cc(-c3ncc4c(N5C[C@H]6CC[C@@H](C5)N6)nc(OC[C@@]56CCCN5C[C@H](F)C6)nc4c3F)c12 [MRTX1133, 4-(4-((1R,5S)-3,8-diazabicyclo[3.2.1]octan-3-yl)-8-fluoro-2-(((2R,7aS)-2-fluorohexahydro-1H-pyrrolizin-7a-yl)methoxy)pyrido[4,3-d]pyrimidin-7-yl)-5-ethynyl-6-fluoronaphthalen-2-ol]
[1]; AsPC-1, MRTX1133 30 mg/kg BID daily, single agent, Day 23
  tumor regression: −28%
[1]; [6]
  Average Tumor Volumes: 193.378 mm^3
[1]; MRTX1133 30 mg/kg BID Daily, Study Day 6
  Average Tumor Volumes: 168.124 mm^3
[1]; MRTX1133 30 mg/kg BID Daily, Study Day 9
  Average Tumor Volumes: 146.75 mm^3
[1]; MRTX1133 30 mg/kg BID Daily, Study Day 13
  Average Tumor Volumes: 143.612 mm^3
[1]; MRTX1133 30 mg/kg BID Daily, Study Day 16
  Average Tumor Volumes: 120.916 mm^3
[1]; MRTX1133 30 mg/kg BID Daily, Study Day 20
  Average Tumor Volumes: 119.264 mm^3
[1]; MRTX1133 30 mg/kg BID Daily, Study Day 23
  Average Tumor Volumes: 139.296 mm^3
[4]; MRTX1133 30 mg/kg BID Daily, Study Day 31
  Average Tumor Volumes: 333.196 mm^3
[3]; Panc 02.03, MRTX1133 30 mg/kg BID, daily administration, single agent, Day 22
  tumor regression: −33%
[3]; [6]
  Average Tumor Volumes: 329.056 mm^3
[3]; MRTX1133 30 mg/kg BID Daily, Study Day 4
  Average Tumor Volumes: 282.836 mm^3
[3]; MRTX1133 30 mg/kg BID Daily, Study Day 8
  Average Tumor Volumes: 208.15 mm^3
[3]; MRTX1133 30 mg/kg BID Daily, Study Day 11
  Average Tumor Volumes: 189.782 mm^3
[3]; MRTX1133 30 mg/kg BID Daily, Study Day 15
  Average Tumor Volumes: 205.992 mm^3
[3]; MRTX1133 30 mg/kg BID Daily, Study Day 18
  Average Tumor Volumes: 227.806 mm^3
[3]; MRTX1133 30 mg/kg BID Daily, Study Day 22
  Average Tumor Volumes: 220.912 mm^3
